Assays:
[1] = target: T1, CAT-1 (carnitine acyltransferase 1) (Rattus norvegicus, UniProt Q63704); assay: Primary Screen--Inhibition of CAT-1 in isolated mitochondria; type: biochemical; details: rat heart mitochondria, reduction of palmitoyl carnitine formation by 50%; read-out: Primary Screen IC50
T1 construct: This preparation is used as the isolated mitochondrial preparation; from tissue; host or cells: rat heart (atria removed), isolated mitochondria
T1 sequence (Q63704 1-772): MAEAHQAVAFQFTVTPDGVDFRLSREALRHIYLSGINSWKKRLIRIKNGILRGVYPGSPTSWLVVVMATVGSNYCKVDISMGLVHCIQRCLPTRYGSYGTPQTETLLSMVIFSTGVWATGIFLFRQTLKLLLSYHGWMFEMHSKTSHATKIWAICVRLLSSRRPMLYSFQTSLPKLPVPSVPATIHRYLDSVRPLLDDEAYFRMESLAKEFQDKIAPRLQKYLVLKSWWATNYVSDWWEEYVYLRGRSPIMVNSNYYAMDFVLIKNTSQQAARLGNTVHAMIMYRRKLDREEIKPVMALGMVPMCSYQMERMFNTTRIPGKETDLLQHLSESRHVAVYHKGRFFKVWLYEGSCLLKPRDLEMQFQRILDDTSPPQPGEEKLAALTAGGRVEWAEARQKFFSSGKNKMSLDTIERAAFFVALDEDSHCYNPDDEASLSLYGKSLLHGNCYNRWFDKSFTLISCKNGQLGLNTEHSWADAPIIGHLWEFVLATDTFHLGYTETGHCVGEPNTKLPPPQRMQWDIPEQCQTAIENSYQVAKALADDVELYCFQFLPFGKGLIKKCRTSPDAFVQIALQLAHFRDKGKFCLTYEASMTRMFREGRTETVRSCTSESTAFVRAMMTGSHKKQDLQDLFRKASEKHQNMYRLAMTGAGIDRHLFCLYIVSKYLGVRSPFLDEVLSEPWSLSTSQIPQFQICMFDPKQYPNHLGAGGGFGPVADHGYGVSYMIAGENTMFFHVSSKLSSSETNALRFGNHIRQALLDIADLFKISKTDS
Procedure: Primary Screen--Inhibitors of CAT-1 in 1Mitochondria
(a). Preparation of Mitochondria
The heart is rapidly removed from an anesthetized rat (sodium pentabarbitol) and placed in ice-cold homogenization buffer (sucrose, 250 mM; Tris, 10 mM; EDTA, 1 mM; BSA, 0.01%; pH=7.4). The atria and extraneous tissue are removed and the remainder is chopped with scissors. The pieces are rinsed in homogenization buffer before being homogenized in 10 mL of the same buffer for 5-7 seconds. The homogenate is then diluted with homogenization buffer (40 total volume) and centrifuged at 200 g for 20 minutes. The supernatant is withdrawn and centrifuged at 7000 g for 20 minutes and the resulting pellet is isolated, resuspended in 40 mL of homogenization buffer and centrifuged once more at 7000 g for 20 minutes. The isolated pellet is resuspended in 10 mL of homogenization buffer and stored at 4° C. until use. This preparation is used as the isolated mitochondrial preparation.
(b). Inhibition of CAT-1 assay
Isolated mitochondria (20 μL) are incubated with 60 μL of Tris/sucrose buffer (sucrose, 500 mM; Tris, 20 mM; KCl, 100 mM; EDTA, 2 mM; pH=7.0 plus 83 μM palmitoyl CoA, and BSA, 0.8 mg/mL and 10^-4 to 10^-10 M of the drug to be tested. After 10 minutes at 30° C., the reaction is started by addition of 10 μL of ^3 H-carnitine (final concentration=250 μM). After 5 minutes, the reaction is terminated by the addition of ice cold 70% perchloric acid (PCA). The precipitated solids so formed, containing the insoluble product of the enzyme palmitoyl carnitine, are captured on filter paper. The filter paper is washed with 7% PCA, then dried and placed in scintillation vials with 10 mL of scintillant (Aquasol, New England Nuclear) and counted for radioactivity. The rate of the reaction is assessed by the difference in radioactivity between zero time and five minutes in the absence of test compound. The ability of test compounds at selected concentrations to inhibit CAT-1 is determined by their ability to reduce the formation of the radioactive product. The IC50 of the test compound is the concentration of test compound that reduces the formation of radioactive product by 50%.

[2] = target: T1, CAT-1 (carnitine acyltransferase 1); assay: Secondary Screen--Inhibition of CAT-1 in intact cardiac myocytes (hypoxia-induced increase in long-chain acylcarnitines); type: cell-based; details: isolated rat cardiac myocytes; for IC50: 50% inhibition of hypoxia-induced increase in long-chain acylcarnitines
Procedure: Secondary Screen--Inhibition of CAT-1 in intact Cardiac Myocytes
(a) Preparation of Isolated Rat Cardiac Myocytes
Four hearts are excised from anesthetized rats and perfused retrogradly via the Langendorf technique. Each heart receives 100 mL of Krebs (NaCl, 118.4 mM; KCL, 4.6 mM; NaH2 PO4, 1.0 mM; NaHCO3, 20 mM; MgSO4, 2 mM; CaCl2, 50 μM; glucose, 11.0 mM), 100 mL of Ca++ free Krebs and finally 100 mL of 0.5% collagenase (Boehringer Mannhelm, type 1) in Hepes (NaCl, 115 mM; KCl, 5 mM; sucrose, 35 mM; glucose, 10 mM; Hepes, 10 mM; taurine, 4 mM; MgSO4, 2 mM; CaCl2, 50 μM). After these perfusions, the hearts are chopped into pieces, approx. 0.5 cm×0.5 cm and placed in four 125 mL plastic bottles along with 25 mL of collagenase/Hepes situated in a water bath maintained at 35° C. The pieces of cardiac tissue in each bottle are agitated by using a Harvard respirator connected to four glass syringes, which sucks the tissue up and down each tube during each respiratory cycle. After fifteen minutes, the collagenase/Hepes is removed and replaced with fresh collegenase/Hepes and the process repeated. The collegenase/Hepes from the subsequent fifteen minute harvests are centrifuged at 500 g to pellet the cells which are then resuspended in Hepes buffer. After six harvests, all cells are pelleted, resuspended in 2×26.5 mL of Hepes plus BSA (350 mg) and layered on top of 2×percoll gradients (21.15 mL percoll, 2.35 mL NaCl, 6 drops acetic acid). This is centfifuged at 3000 g for eight minutes forming a percoll gradient which results in viable cells being separated from damaged cells. The viable cells are removed, washed with Hepes and finally resuspended in 25 mL of Hepes.
The isolated cardiac myocytes (2 mL; approximately 1×10^6 cells) are separated into six glass pods. Into four of these are placed selected concentrations of the compound to be tested, and the cells are incubated for twenty minutes, after which the pods are centrifuged at 300 g for three minutes. 300 μL of normoxic Hepes is placed in one of the pods not containing compound and then all pods are placed in a hypoxic chamber (N2 atmosphere). Oxygen is fed via small bore steel tubes to the pod containing the normoxic buffer, while the other five pods receive pre-purified argon (99.998% pure). After two minutes, Hepes (pre-gassed with argon for at least twelve hours) is fed into the five hypoxic pods. This hypoxic environment (pO2 <10 mm Hg) is maintained for twenty minutes, after which the cells and pods are frozen by contact with a metal block precooled in liquid N2. The pods are then removed from the chamber and stored at -70° C. The carnitine assay is performed, as described below in (c), to determine the amount of long-chain acylcarnitine in the cells from the normoxic, hypoxic and hypoxic plus compound samples. […] Thus the IC50 in this screen is the concentration of test compound which produces a 50% inhibition of the hypoxia-induced increase in long-chain acylcarnitines.
(c) Long-chain Acylcarnitine Assay.
The frozen cell samples are thawed, mixed and homogenized with 40 μL of 70% PCA. The homogenate is transferred to eppendorf tubes while the homogenization tube and the glass pod is rinsed with 500 μL of 7% PCA, with the rinse being added to the eppendorf tube. This is then centrifuged at 1000 g for two minutes to pellet the precipitate (containing the long-chain acylcarnitine) and the supernatant is discarded. The pellet is washed twice with 500 μL of 7% PCA, the supernatants being discarded. The pellet is then hydrolyzed (to separate the acyl unit from carnitine to yield free carnitine) by the addition of 200 μL of aleionized H2 O and 50 μL of 5N KOH and incubated at 70° C. for ninety minutes.

IC50 [1] [nM]	IC50 [2] [nM]	inhibition at 25 µM ([2]; @ 25 μM, hypoxia) [%]	Compound
50	300		O=C(O)C(=O)c1ccc(OCC(=O)c2ccc3ccccc3c2)cc1 [Example 157, 4-[2-(2-naphthalenyl)-2-oxoethoxy]-alpha-oxobenzeneacetic acid]
30	100		C[N+](C)(C)CCOC(=O)C(=O)c1ccc(OCCOc2ccc3ccccc3c2)s1 [Example 7, 2-[[5-[[2-(2-naphthalenyloxy)ethyl]oxy]-alpha-oxo-2-thiopheneacetyl]oxy]-N,N,N-trimethylethanaminium iodide]

Second part, the compound before the results:

Compound	IC50 [1] [nM]	IC50 [2] [nM]	inhibition at 25 µM ([2]; @ 25 μM, hypoxia) [%]
CC(C)(C)c1ccc(C(=O)COc2ccc(C(=O)C(=O)O)cc2)cc1 [Example 286]	300	1200	
CCC(C)(C)C(=O)OCc1cccc(C)c1OCCSc1ccc(C(=O)C(=O)O)cc1 [Example 175, 4-[[2-[2-[(2,2-dimethyl-1-oxobutoxy)methyl]-6-methylphenoxy]ethyl]thio]-alpha-oxobenzeneacetic acid]	500	200	
CCCc1c(OCCCOc2ccc(C(=O)C(=O)O)cc2)ccc(C(C)=O)c1O [Example 257, 4-[3-(4-acetyl-3-hydroxy-2-propylphenoxy)propoxy]-alpha-oxobenzeneacetic acid]	380	100	
O=C(O)C(=O)c1ccc(OCCOc2ccc3ccccc3c2)c([N+](=O)[O-])c1 [Example 179, 4-[2-(2-naphthalenyloxy)ethoxy]-3-nitro-alpha-oxobenzeneacetic acid]	200	8000	
O=C(O)C(=O)c1c(F)c(F)c(OCCOc2ccc3ccccc3c2)c(F)c1F [Example 205, 2,3,5,6-tetrafluoro-4-[2-(2-naphthalenyloxy)ethoxy]-alpha-oxobenzeneaceticacid]	7200		35
